From patent US20220152117A1, “METHODS OF PROMOTING CELLULAR MATURATION WITH AMPK ACTIVATORS” (UNIVERSITY OF WASHINGTON, priority 2019, published 2022)
“Also recorded” adds a separate entry of the source.

Assays:
Format in all cases: cell-based, human
hiPS-HLCs = experiment: RT-PCR of hepatic and mitochondrial-related genes in hepatocyte-like cells
Method: Undifferentiated human IMR90-induced pluripotent stem cells, originally derived from lung fibroblasts^22 (James A. Thomson, University of Wisconsin-Madison), were expanded using mouse embryonic fibroblast-conditioned medium supplemented with 5 ng/ml basic fibroblast growth factor. Cardiomyocytes were obtained using a previously described protocol^2 that involves the serial application of activin A and bone morphogenetic protein-4 (BMP4) under serum-free, monolayer culture conditions. The cultures were also supplemented with the Wnt agonist CHIR99021 in the early stages of differentiation followed by the Wnt antagonist Xav939. In this study, cardiomyocytes derived from human undifferentiated IMR90-induced stem cells were used, and for brevity, these are referred to human induced pluripotent stem cell-derived cardiomyocytes (hiPSC-CM). After 20 days of in vitro differentiation, the cells were dispersed using 0.05% trypsin-EDTA and re-plated. Cultures were fed every other day thereafter with serum-free RPMI-B27 plus insulin. Only cell preparations containing >80% cardiac troponin T-positive cardiomyocytes (by flow cytometry) were used for the current investigation. Twenty days after induction, cells were re-plated at different densities based on experimental purposes (described below). Cells were treated with 1 mM AICAR for two weeks (unless otherwise mentioned specifically), with media being changed every other day. This study was mainly performed with cardiomyocytes-derived from IMR90 iPS cell line. However, cardiomyocytes-derived from another iPS cell line, WTC11 iPS cells^22, and a human embryonic stem cell line (hESC), RUES2 cells, were also used for some of the experiments. Rues and WTC undifferentiated cells were cultured with mTeSR medium. Similar differentiation protocols as to IMR90 were used to obtain cardiomyocytes from Rues and WTC cells. Only cell preparations containing >80% cardiac troponin T-positive cardiomyocytes (by flow cytometry) were used for the current investigation. Undifferentiated iPSCs were maintained on StemAdhere™ (Primorigin Biosciences®) with mTesR medium supplemented with bFGF. The formation of hepatocyte-like cells from iPSCs was achieved as described previously^24,25. Briefly, cells were induced to form endoderm by addition of 100 ng/ml Activin A, 10 ng/ml BMP4, and 20 ng/ml FGF2 for two days followed by 100 ng/ml Activin A for an additional three days. Hepatic progenitor cells were formed by supplementing the medium with 20 ng/ml BMP4 and 10 ng/ml FGF2. Next, 20 ng/ml HGF was added between days 10 and 15 and induced maturation of the hepatocytes by culturing the cells in HCM medium (Lonza®) containing 20 ng/ml Oncostatin M until day 20. In some experiments, the differentiation medium was supplemented with 1.0 mM AICAR between days 15 and 20. hiPSC-derived neurons were generated following previously published protocols^26, 27, 28. Briefly, hiPSCs from a control individual^28 and from a patient with the duplication of the amyloid precursor protein (APP) gene^27 were cultured on mouse embryonic fibroblasts in the presence of 20 ng/ml bFGF (Peprotech®). Neural stem cells were generated by hiPSC co-culture on the mouse stromal cell line PA6 in the presence of 0.5 ug/ml Noggin (Peprotech®) and 10 uM SB431542 (Peprotech®). After 12 days, neural rosettes were dissociated and FACS sorted for the cell surface markers CD184/CD24^+; CD44/CD271^−. Neural stem cells were propagated in 20 ng/ml bFGF and neuronal differentiation was induced by the withdrawal of bFGF and the addition of 20 ng/ml BDNF (Peprotech®), 20 ng/ml GDNF (Peprotech®), […] dbCAMP (Peprotech®).
Total RNA was isolated using the Qiagen RNeasy Kit™, and mRNA was reverse transcribed using the Superscript™ III first strand cDNA synthesis kit (Invitrogen®). All primers were purchased from Real Time Primers, and qRT-PCR was performed using SYBR™ green chemistry and an ABI 7900HT instrument or TAQMAN™ with BIORad CXF384™. […]

hPSC-CMs = experiment: Mitochondrial oxidation of glucose, Seahorse XF96 maximum respiration capacity; conditions: AICAR treated vs control
Method: The Seahorse XF96 extracellular flux Analyzer™ was used to assess mitochondria function with glucose as substrate. Cell preparation and treatment for this assay were the same as the palmitate assay. On the assay day, culture medium was changed to base media (unbuffered DMEM, Sigma D5030, supplemented with 2 mM glutamine, 25 mM glucose, 1 mM pyruvate) 1 hour before the assay and for the duration of the measurement. Selective inhibitors were injected during the measurements to achieve final concentrations of oligomycin at 2.5 μM, FCCP at 1 μM, rotenone at 2.5 μM, and antimycin A at 2.5 μM. The OCR values were further normalized to the number of cells present in each well, quantified by Hoechst staining. Maximal OCR was the OCR difference between uncoupler FCCP and ATPase inhibitor oligomycin. Due to variations in the absolute magnitude of OCR measurements in different experiments, the relative AICAR treated/untreated control levels were used to compare and summarize independent biological replicates (N=6).

[1] = test system: cardiomyocytes from ARVD/C hiPSCs; experiment: TUNEL cell viability assay, cardiomyocytes from mutant PKP2 (ARVD/C) hiPSCs; conditions: two weeks treatment, TUNEL with α-actinin co-stain
Method: The normal and mutant Plakophilin 2 (PKP2) cells were generated as described previously^37. Induced pluripotent cells were cultured with E8 medium in Matrigel® coated plates. Cardiomyocytes were obtained using a protocol based on Lian et al^38 that involves Wnt agonist CHIR 99021 in the early stages of differentiation followed by the Wnt antagonist IWP2 under monolayer condition. Before Day 7, cells were cultured in RPMI plus B27 without insulin while on Day 7 and afterwards, EB media (KO-DMEM with 2% FBS, 1 mM NEAAs, 1× GlutaMAX, 1 mM mercaptoethanol, and penicillin/streptomycin) was used. At 30 days of differentiation, beating EBs were treated with three factors (3F) (50 μg/ml insulin, 0.5 μM dexamethasone, and 0.25 mM IBMX) or five factors (5F) (3F plus PPAR-γ agonists 5 μM rosiglitazone and 200 μM indomethacin) media as described earlier or treated with 1 mM AICAR or AICAR plus rosiglitazone and indomethacin for two weeks. TUNEL staining with In Situ Cell Death Detection Kit TMR Red™ (Roche®) was used to assess cell viability after conducting different treatment. TUNEL staining was co-stained with anti-α-actinin antibody so that cardiomyocyte-specific apoptosis could be assessed.

[2] = HLCs treated at day 20 with 1 mM AICAR for additional seven days

## NC(=O)c1ncn([C@@H]2O[C@H](CO)[C@@H](O)[C@H]2O)c1N [AICAR, 5-amino-4-imidazolecarboxamide riboside-1-β-D-ribofuranoside]
hiPS-HLCs; 1 mM AICAR day 15 to 17
  HNF4α expression, treatment day 15 to 17: significantly down-regulated
  other mature hepatic-related genes (SLC10A1, APOH, ASGR, APOB, and PXR): no significant difference
hiPS-HLCs; 1 mM AICAR day 15 to 17, endpoint day 20
  AFP expression, treatment day 15 to 17: diminished; also recorded: significantly reduced
hiPS-HLCs; 1 mM AICAR day 15 to 17, endpoint day 20, b310 calls the change non-significant
  ALB expression, treatment day 15 to 17: enhanced
hiPS-HLCs; 1 mM AICAR, longer treatment between days 15 and 20, endpoint day 20
  ALB expression, longer treatment: adversely affected
hiPS-HLCs; [2]
  PDK4 expression in HLCs: significantly increased
  PGC1α, ERRa, PPARα, TFAM and HNF4α expression in HLCs: no significant effect
hPSC-CMs
  maximum mitochondrial respiration capacity: significantly increased
[1]
  apoptosis / cell death in cardiomyocytes from ARVD/C (mutant PKP2) hiPSCs: induced significant apoptosis; also recorded: induced significant cell death
